Laboratory results as given in patent publication US20230104487A1, “11-(4-CHLOROPHENYL)-4-(2,3-DIHYDRO-1H-INDOLE-1-CARBONYL)-3,11-DIMETHYL-5,10,DIOXATRICYCLO[7.4.0.0,2,6,]TRIDECA-1,3,6,8-TETRAEN-13-ONE AND DERIVATIVES AS DESTABILIZER OF CRY1 FOR THE TREATMENT OF CIRCADIAN RHYTHM ASSOCIATED DISEASES AND DISORDERS” (KOC UNIVERSITESI, priority 2019, published 2023).
Entries after “also recorded” stand apart in the source; their conditions may differ.

Tests used:
CRY2 = molecular target: T1, CRY2 (Mus musculus, UniProt Q9R194); assay: Pull-down assay with biotinylated molecule, CRY2-HIS-MYC; assay type: binding; conditions: 50 μM bFORMULA I, 100 μM FORMULA I competitor
T1 construct: expressed in transfected cells; host or cells: HEK293T (lysate)
T1 sequence (Q9R194 1-592): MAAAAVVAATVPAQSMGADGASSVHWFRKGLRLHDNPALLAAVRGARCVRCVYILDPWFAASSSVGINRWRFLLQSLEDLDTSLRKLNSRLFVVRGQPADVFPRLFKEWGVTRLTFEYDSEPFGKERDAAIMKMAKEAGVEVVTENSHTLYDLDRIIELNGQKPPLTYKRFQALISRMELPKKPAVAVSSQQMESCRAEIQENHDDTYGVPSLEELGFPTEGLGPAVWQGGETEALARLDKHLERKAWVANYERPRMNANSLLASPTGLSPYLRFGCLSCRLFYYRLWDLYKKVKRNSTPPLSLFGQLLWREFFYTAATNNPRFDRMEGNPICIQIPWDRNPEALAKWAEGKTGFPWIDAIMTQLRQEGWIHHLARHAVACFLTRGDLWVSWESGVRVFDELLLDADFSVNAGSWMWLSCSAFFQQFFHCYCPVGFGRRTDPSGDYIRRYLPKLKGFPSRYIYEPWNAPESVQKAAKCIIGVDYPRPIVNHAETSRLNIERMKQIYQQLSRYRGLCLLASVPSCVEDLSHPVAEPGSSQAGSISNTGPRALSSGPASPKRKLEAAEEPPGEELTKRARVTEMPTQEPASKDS
Description: (§1) 10 μg of Cry1-pcDNA4, Cry2-pcDNA4 or Cry1-T5-pcDNA4 plasmids expressing His and Myc at the C-terminal of CRYs were transfected to HEK293T cell. After 48 h of transfection cells were harvested and lysed in lysis buffer (50 mM Tris pH 7.4, 2 mM EDTA, 1 mM MgCl2, 0.2% NP-40 (v/v), 0.1% sodium deoxycholate (w/v), 1 mM sodium orthovanadate, 1 mM sodium fluoride, and protease inhibitor cocktail (Thermo Scientific)). Lysates were incubated for 10 minutes on ice then mixed gently and incubated for another 10 minutes on ice. Then lysate was centrifuged for 10 minutes at 7000 g at 4° C. 5% of the supernatant was kept for input analysis. Remaining supernatant was divided to three and mixed with 2×binding buffer (100 mM Tris-HCl pH 7.4, 300 mM NaCl, 0.2% NP-40 (v/v), 2 mM sodium orthovanadate, 2 mM sodium fluoride, and protease inhibitor) with 1:1 ratio, incubated with rotation having either of these: a) DMSO, b) biotinylated molecule, c) biotinylated molecule and the competitor for 2 h. During this period NeutrAvidin Agarose resin (Thermo Scientific) was equilibrated with lysis buffer by mixing for 5 minutes via rotation at 4° C. three times. After each mix period, resins were centrifuged at 2500 g at 4° C. for 2 minutes and supernatant was discarded. […] Pulled-down samples were analyzed via western blot.

[1] = test system: Ras transformed p53-null MEF cell line; assay: Apoptosis assay (PARP cleavage) with oxaliplatin; assay type: cell-based, mouse; conditions: 0, 10 or 20 μM oxaliplatin followed by FORMULA I
Description: FIGS. 6A-6B are an illustration of FORMULA I enhanced the effect of oxalipilatin in p53 null MSF cells. Ras pT24 transformed p53 null MSF fibroblast cells were treated with 0, 10 or 20 μM oxaliplatin and incubated for 24 h. Then either DMSO or FORMULA I was added and incubated for 16 h. Cells were lysed and analyzed via protein immunoblot technique. […] Bar graph was drawn normalizing to 10 μM dosage of oxaliplatin (Data represent the mean±SEM, n=4 **: p<0.005, * p<0.05 versus DMSO control by two-way ANOVA).
In previous studies it was reported that […] mutation sensitizes the Ras transformed p53-null cells, but not cells with wild-type p53, to apoptosis induced by UV or UV mimetic agents e.g oxaliplatin. Using fibroblasts isolated from the skin of Cry1^−/−Cry2^−/−p53^−/− and p53^−/− mice, it has been shown that Cry deletion on the p53-null background sensitized the cells to bulky-DNA adduct-induced apoptosis (Lee and Sancar, 2011). With the expectation that FORMULA I would destabilize CRY1 and increase the effectiveness of UV mimetic chemotherapeutic agents, we performed apoptosis assay with Ras transformed p53-null MEF cell lines. In this assay, cells were treated by increasing dose of oxaliplatin for 16 h followed by FORMULA I treatment for 24 h and probed for apoptosis by measuring PARP cleavage. […]

CRY1 = molecular target: T2, CRY1 (Mus musculus, UniProt P97784); assay: Pull-down assay with biotinylated molecule, CRY1-HIS-MYC; assay type: binding; conditions: 50 μM bFORMULA I, 100 μM FORMULA I competitor
T2 sequence (P97784 1-606): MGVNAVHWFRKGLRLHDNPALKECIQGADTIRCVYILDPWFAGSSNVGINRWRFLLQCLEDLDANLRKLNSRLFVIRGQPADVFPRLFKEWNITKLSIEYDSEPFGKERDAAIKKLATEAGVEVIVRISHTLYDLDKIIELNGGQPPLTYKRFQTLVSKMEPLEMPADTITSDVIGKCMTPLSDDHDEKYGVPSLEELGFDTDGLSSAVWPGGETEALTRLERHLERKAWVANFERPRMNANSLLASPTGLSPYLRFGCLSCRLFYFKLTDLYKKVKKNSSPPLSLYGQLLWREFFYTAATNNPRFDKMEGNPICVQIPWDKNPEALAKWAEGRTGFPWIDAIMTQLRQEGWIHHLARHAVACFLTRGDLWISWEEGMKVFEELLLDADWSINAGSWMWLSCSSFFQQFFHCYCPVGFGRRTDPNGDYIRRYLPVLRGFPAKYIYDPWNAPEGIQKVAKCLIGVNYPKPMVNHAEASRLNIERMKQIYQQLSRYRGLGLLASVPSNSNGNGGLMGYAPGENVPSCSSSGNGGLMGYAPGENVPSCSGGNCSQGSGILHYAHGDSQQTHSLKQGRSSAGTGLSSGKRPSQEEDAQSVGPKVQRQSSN
Description: as §1

With `Cc1c(C(=O)N2CCc3ccccc32)oc2ccc3c(c12)C(=O)CC(C)(c1ccc(Cl)cc1)O3` (stereo not drawn) [FORMULA I, 11-(4-chlorophenyl)-4-(2,3-dihydro-1H-indole-1-carbonyl)-3,11-dimethyl-5,10,dioxatricyclo[7.4.0.0,2,6,]trideca-1,3,6,8-tetraen-13-one] the “physical binding to CRY2 (pull-down)” value (CRY2) was “does not bind to CRY2”, the “oxaliplatin-induced apoptosis (cleaved PARP)” value [1] was “sensitized Ras transformed p53-null MEF cell line to oxaliplatin-induced apoptosis; also recorded: increases the cleaved PARP protein level” and the “physical binding to CRY1 (pull-down)” value (CRY1) was “physically binds to CRY1; also recorded: binds to PHR of CRY1”.
